Columns and labels:
S100B = assay: co-immunoprecipitation of Ndr with anti-S100B from COS-1 cells; assay type: cell-based; settings: co-expressed with S100B
Method: For expression of Ndr and S100B in mammalian cells, the cDNAs encoding Ndr and S100B are cloned into the pECE vector, which directs expression driven by an SV40-derived promoter. In addition, an amino-terminal truncation mutant of Ndr lacking the first 84 amino acids (1-84) is used.
The plasmids encoding Ndr and S100B are transfected into COS-1 cells, either alone or in combination. Seventy-two hours later, cells extracts are prepared and immunoprecipitated with an antibody recognising S100B. In an anti-Ndr western blot of the cell extracts, it is shown that Ndr is expressed an expected.

calmodulin = settings: cited from earlier work
calmodulin (CaM-agarose) = assay: binding of Ndr and deletion mutants from COS-1 cell lysates to CaM-agarose
Source text: In addition, the ability of untagged Ndr to interact with CaM is investigated. COS-1 cells are transfected with pECE or with derivative plasmids encoding wild-type Ndr, NdrΔ65-81 or NdrΔ1-84 (Millward, T. A., et al., (1995) Proc. Natl. Acad. Sci. USA 92, 5022-5026) using DEAE-dextran (Seed, B. and Aruffo, A. (1987) Proc. Natl. Acad. Sci. USA 84, 3365-3369). Seventy-two hours after transfection, cells are scraped into ice-cold phosphate-buffered saline (PBS), spun down, and disrupted in buffer A (TBS containing 1 mM dithiothreitol, 0.5 mM phenylmethylsulfonyl fluoride, 4 μM leupeptin and 1 mM benzamidine) using a tight-fitting all-glass dounce homogenizer. Extracts (20 μg) are adjusted to 1 mg/ml, supplemented with either 1 mM CaCl2 or 1 mM EGTA and then mixed for 2 h with 6 μl CaM-agarose. After washing three times with 1 ml of the corresponding binding buffer, the beads are eluted with buffer A containing 5 mM EGTA. Equal portions of the unbound and EGTA-eluted fractions are analysed by immunoblofting with anti-Ndr antibodies.
Samples are separated by SDS-PAGE and electroblotted to Immobilon-P membranes (Millipore). Blots are incubated in blocking buffer (50 mM Tris-HCl pH 7.5, 150 mM NaCl, 1% (v/v) Triton X-1 00, 0.5% (v/v) Tween 20, 5% (w/v) skim milk powder) and then probed for 2 h with primary antibodies diluted in the same buffer. Ndr and GST-Ndr are detected with Ab^452-465 at 4 μg/ml (Millward, T. A., et al., Op. Cit.); GST is detected with an anti-GST antiserum (1 :1000 dilution). Bound antibodies are detected using horseradish peroxidase-conjugated donkey anti-rabbit IgG antibodies and ECL substrates (Amersham).
To verify whether this domain of Ndr is indeed responsible for its interaction with CaM, deletion mutants of Ndr are expressed in COS-1 cells and tested for CaM binding as above. […] In lysates supplemented with Ca^2 , deletion of amino acids 65-81 cause a large reduction in CaM binding (to ~10% of the level of wild-type binding) as assessed by western blotting.

Ndr: nuclear serine/threonine protein kinase
co-immunoprecipitation with anti-S100B (S100B): anti-S100B antibodies co-immunoprecipitated Ndr
binding to calmodulin (calmodulin): capable of binding to calmodulin
binding to CaM-agarose (calmodulin (CaM-agarose); lysate supplemented with EGTA): no detectable binding
binding to CaM-agarose (calmodulin (CaM-agarose); lysates supplemented with Ca^2+): quantitatively and selectively removed from the lysate by CaM-agarose

Reference: US6258776A, “Calcium-regulated kinase” (priority 1997, dated 2001)
